Experimental data taken from ChEMBL document CHEMBL5034044, “Novel Compounds for Targeted Degradation of BRD9 and Their Use for Treating Cancer” (ACS Med Chem Lett, 2022).

Target: T1, Bromodomain-containing protein 9 (Homo sapiens, UniProt Q9H8M2)
T1 sequence (Q9H8M2 whole entry): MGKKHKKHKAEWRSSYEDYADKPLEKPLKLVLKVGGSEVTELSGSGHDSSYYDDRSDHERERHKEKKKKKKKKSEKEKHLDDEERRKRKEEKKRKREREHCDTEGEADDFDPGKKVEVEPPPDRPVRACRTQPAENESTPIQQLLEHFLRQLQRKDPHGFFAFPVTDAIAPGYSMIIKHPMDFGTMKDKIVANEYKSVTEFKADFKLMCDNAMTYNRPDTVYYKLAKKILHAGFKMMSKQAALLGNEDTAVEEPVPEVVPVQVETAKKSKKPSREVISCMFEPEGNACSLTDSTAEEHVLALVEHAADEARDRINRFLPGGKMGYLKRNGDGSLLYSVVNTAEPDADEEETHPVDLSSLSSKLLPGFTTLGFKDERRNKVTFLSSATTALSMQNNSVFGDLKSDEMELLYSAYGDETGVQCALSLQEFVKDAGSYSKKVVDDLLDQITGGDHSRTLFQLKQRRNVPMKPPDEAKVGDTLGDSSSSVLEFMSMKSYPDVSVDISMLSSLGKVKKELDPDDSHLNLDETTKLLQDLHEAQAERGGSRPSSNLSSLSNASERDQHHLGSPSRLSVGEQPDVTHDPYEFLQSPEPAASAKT
Test: Induction of degradation of BRD9 (unknown origin) assessed as protein degradation measured after 2 hrs by HiBit Lytic assay

DC50, < 100 nM:
COc1cc(-c2cn(C)c(=O)c(C)c2C)cc(Cl)c1CN1CCC(N2CCN(c3ccc(NC4CCC(=O)NC4=O)cc3F)CC2)C(F)(F)C1 (stereo unspecified)
COc1cc(-c2cn(C)c(=O)c(C)c2C)cc(OC)c1CN1CCN(C(=O)CC2CCN(c3ccc(NC4CCC(=O)NC4=O)cc3C(F)(F)F)CC2)CC12CC2 (stereo unspecified)
COc1cc(-c2cn(C)c(=O)c3[nH]ncc23)cc(OC)c1CN1CCC2(CC1)CN(C(=O)CN1CCC(c3ccc(NC4CCC(=O)NC4=O)cc3)CC1)C2 (stereo unspecified)
CC(c1ccc(-c2cn(C)c(=O)c3cc(F)ccc23)cc1OC(F)(F)F)N1CCC(C2CCN(c3ccc(NC4CCC(=O)NC4=O)cc3F)CC2)CC1 (stereo unspecified)
COc1cc(-c2cn(C)c(=O)c3[nH]ncc23)cc(OC)c1CN1CCc2c(CN3CCC(c4ccc(NC5CCC(=O)NC5=O)cc4)C(F)(F)C3)csc2C1 (stereo unspecified)
COc1cc(-c2cn(C)c(=O)c3cnccc23)c(Cl)cc1CN1CCC(N2CCN(c3ccc(NC4CCC(=O)NC4=O)cc3F)CC2)C(F)(F)C1 (stereo unspecified)
